Experimental data: patent US9416125B2, “Substituted cycloalkenopyrazoles as BUB1 inhibitors for the treatment of cancer” (BAYER PHARMA AKTIENGESELLSCHAFT, priority 2012, dated 2016)

Legend:
[1] = test system: HeLa cell line; assay: Proliferation assay (crystal violet staining); format: cell-based; conditions: Homo sapiens, 96 h, 4 days incubation, range 0.001-10 μM, median, read-out: Biological Assay 2: Proliferation assay (HeLa cell line) median IC50
Description: Cultivated tumor cells (cells were ordered from ATCC, except HeLa-MaTu and HeLa-MaTu-ADR, which were ordered from EPO-GmbH, Berlin) were plated at a density of 1000 to 5000 cells/well, depending on the growth rate of the respective cell line, in a 96-well multititer plate in 200 μL of their respective growth medium supplemented 10% fetal calf serum. After 24 h, the cells of one plate (zero-point plate) were stained with crystal violet (see below), while the medium of the other plates was replaced by fresh culture medium (200 μL), to which the test substances were added in various concentrations (0 μM, as well as in the range of 0.001-10 μM; the final concentration of the solvent DMSO was 0.5%). The cells were incubated for 4 days in the presence of test substances. Cell proliferation was determined by staining the cells with crystal violet: the cells were fixed by adding 20 μL/measuring point of an 11% glutaric aldehyde solution for 15 min at rt. After three washing cycles of the fixed cells with water, the plates were dried at rt. The cells were stained by adding 100 μL/measuring point of a 0.1% crystal violet solution (pH 3.0). After three washing cycles of the stained cells with water, the plates were dried at rt. The dye was dissolved by adding 100 μL/measuring point of a 10% acetic acid solution. Absorbtion was determined by photometry at a wavelength of 595 nm. The change of cell number, in percent, was calculated by normalization of the measured values to the aborbtion values of the zero-point plate (=0%) and the absorbtion of the untreated (0 μm) cells (=100%). The IC50 values were determined by means of a 4 parameter fit.

[2] = molecular target: T1, catalytic domain of human Bub1 (amino acids 704-1085) (Homo sapiens, UniProt O43683); assay: Bub1 kinase assay (TR-FRET); format: biochemical; conditions: 10 μM ATP, 1 μM peptide substrate, median, read-out: Biological Assay 1: Bub1 kinase assay median IC50
T1 construct: catalytic domain of human Bub1 (amino acids 704-1085); His6 (N); made in house; host or cells: Hi5 insect cells
T1 sequence (O43683 704-1085): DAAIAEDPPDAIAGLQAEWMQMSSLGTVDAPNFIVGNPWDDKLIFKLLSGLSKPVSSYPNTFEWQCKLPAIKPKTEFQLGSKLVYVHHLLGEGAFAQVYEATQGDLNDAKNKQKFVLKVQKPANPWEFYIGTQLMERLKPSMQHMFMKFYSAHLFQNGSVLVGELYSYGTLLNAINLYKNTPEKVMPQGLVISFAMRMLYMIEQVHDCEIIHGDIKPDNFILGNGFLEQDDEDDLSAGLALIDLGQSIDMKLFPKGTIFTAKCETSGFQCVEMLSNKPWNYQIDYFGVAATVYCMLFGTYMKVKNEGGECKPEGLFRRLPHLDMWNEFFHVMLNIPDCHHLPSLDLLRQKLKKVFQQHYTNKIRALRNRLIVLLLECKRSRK
Source text: Bub1-inhibitory activities of compounds described in the present invention were quantified using a time-resolved fluorescence energy transfer (TR-FRET) kinase assay which measures phosphorylation of the synthetic peptide Biotin-Ahx-VLLPKKSFAEPG (C-terminus in amide form), purchased from e.g. Biosyntan (Berlin, Germany) by the (recombinant) catalytic domain of human Bub1 (amino acids 704-1085), expressed in Hi5 insect cells with an N-terminal His6-tag and purified by affinity- (Ni-NTA) and size exclusion chromatography.
In a typical assay 11 different concentrations of each compound (0.1 nM, 0.33 nM, 1.1 nM, 3.8 nM, 13 nM, 44 nM, 0.15 μM, 0.51 μM, 1.7 μM, 5.9 μM and 20 μM) were tested in duplicate within the same microtiter plate. To this end, 100-fold concentrated compound solutions (in DMSO) were previously prepared by serial dilution (1:3.4) of 2 mM stocks in a clear low volume 384-well source microtiter plate (Greiner Bio-One, Frickenhausen, Germany), from which 50 nL of compounds were transferred into a black low volume test microtiter plate from the same supplier. Subsequently, 2 μL of Bub1 (the final concentration of Bub1 was adjusted depending on the activity of the enzyme lot in order to be within the linear dynamic range of the assay: typically ˜200 ng/mL were used) in aqueous assay buffer [50 mM Tris/HCl pH 7.5, 10 mM magnesium chloride (MgCl2), 200 mM potassium chloride (KCl), 1.0 mM dithiothreitol (DTT), 0.1 mM sodium ortho-vanadate, 1% (v/v) glycerol, 0.01% (w/v) bovine serum albumine (BSA), 0.005% (v/v) Trition X-100 (Sigma), 1× Complete EDTA-free protease inhibitor mixture (Roche)] were added to the compounds in the test plate and the mixture was incubated for 15 min at 22° C. to allow pre-equilibration of the putative enzyme-inhibitor complexes before the start of the kinase reaction, which was initiated by the addition of 3 μL 1.67-fold concentrated solution (in assay buffer) of adenosine-tri-phosphate (ATP, 10 μM final concentration) and peptide substrate (1 μM final concentration). The resulting mixture (5 μL final volume) was incubated at 22° C. during 60 min, and the reaction was stopped by the addition of 5 μL of an aqueous EDTA-solution (50 mM EDTA, in 100 mM HEPES pH 7.5 and 0.2% (w/v) bovine serum albumin) which also contained the TR-FRET detection reagents (0.2 μM streptavidin-XL665 [Cisbio Bioassays, Codolet, France] and 1 nM anti-phosho-Serine antibody [Merck Millipore, cat. #35-001] and 0.4 nM LANCE EU-W1024 labeled anti-mouse IgG antibody [Perkin-Elmer, product no. AD0077, alternatively a Terbium-cryptate-labeled anti-mouse IgG antibody from Cisbio Bioassays can be used]). The stopped reaction mixture was further incubated 1 h at 22° C. in order to allow the formation of complexes between peptides and detection reagents. Subsequently, the amount of product was evaluated by measurement of the resonance energy transfer from the Eu-chelate-antibody complex recognizing the Phosphoserine residue to the streptavidin-XL665 bound to the biotin moiety of the peptide. To this end, the fluorescence emissions at 620 nm and 665 nm after excitation at 330-350 nm were measured in GTR-FRET plate reader, e.g. a Rubystar or Pherastar (both from BMG Labtechnologies, Offenburg, Germany) or a Viewlux (Perkin-Elmer) and the ratio of the emissions (665 nm/622 nm) was taken as indicator for the amount of phosphorylated substrate. The data were normalised using two sets of (typically 32-) control wells for high- (=enzyme reaction without inhibitor=0%=Minimum inhibition) and low- (=all assay components without enzyme=100%=Maximum inhibition) Bub1 activity. IC50 values were calculated by fitting the normalized inhibition data to a 4-parameter logistic equation (Minimum, Maximum, IC50, Hill; Y=Max+(Min−Max)/(1+(X/IC50)Hill)).

`CCOc1cc(F)c(Cn2nc(-c3ncc(OC)c(Nc4ccncc4)n3)c3c2CCC3)c(F)c1` [Example 2-1-1, 2-[1-(4-ethoxy-2,6-difluorobenzyl)-1,4,5,6-tetrahydrocyclopenta-[c]pyrazol-3-yl]-5-methoxy-N-(pyridin-4-yl)pyrimidin-4-amine] was tested, and the IC50 [1] was 6000 nM and the IC50 [2] was 5 nM.
In the case of `COc1cnc(-c2nn(Cc3ccccc3F)c3c2CCCC3)nc1Nc1ccncc1` [Example 2-1-2, 2-[1-(2-fluoro-benzyl)-4,5,6,7-tetrahydro-1H-indazol-3-yl]-5-methoxy-N-(pyridin-4-yl)pyrimidin-4-amine], the IC50 [1] is reported as ≥ 10000 nM and the IC50 [2] is reported as 10 nM.
With `COc1ccc(Cn2nc(-c3ncc(OC)c(Nc4ccncc4)n3)c3c2CCC3)cc1` [Example 2-1-3, 5-methoxy-2-[1-(4-methoxy-benzyl)-1,4,5,6-tetrahydrocyclopenta [c]pyrazol-3-yl]-N-(pyridin-4-yl)pyrimidin-4-amine] the IC50 [1] was ≥ 10000 nM and the IC50 [2] was 50 nM.
With `COc1c(N)nc(-c2nn(Cc3ccccc3F)c3c2CCC3)nc1Nc1ccncc1` [Example 2-1-4, 2-[1-(2-fluoro-benzyl)-1,4,5,6-tetrahydrocyclopenta [c]pyrazol-3-yl]-5-methoxy-N-(pyridin-4-yl)pyrimidin-4,6-diamine] the IC50 [1] was ≥ 10000 nM and the IC50 [2] was 90 nM.
Work on `Nc1nc(-c2nn(Cc3ccccc3F)c3c2CCC3)nc(Nc2ccncc2)c1N1CCOCC1` [Example 2-1-5, 2-[1-(2-fluoro-benzyl)-1,4,5,6-tetrahydrocyclopenta [c]pyrazol-3-yl]-5-(morpholin-4-yl)-N-(pyridin-4-yl)pyrimidin-4,6-diamine] yielded an IC50 [2] of 100 nM.
With `COc1cnc(-c2nn(Cc3ccccc3F)c3c2CCC3)nc1Nc1ccncc1` [Example 2-1-6, 2-[1-(2-fluoro-benzyl)-1,4,5,6-tetrahydrocyclopenta [c]pyrazol-3-yl]-5-methoxy-N-(pyridin-4-yl)pyrimidin-4-amine] the IC50 [1] was ≥ 10000 nM and the IC50 [2] was 100 nM.
`COc1cnc(-c2nn(Cc3ccccc3F)c3c2CCC3)nc1Nc1ccncc1C#N` [Example 2-1-7, 4-({2-[1-(2-fluoro-benzyl)-1,4,5,6-tetrahydrocyclopenta [c]pyrazol-3-yl]-5-methoxy-pyrimidin-4-yl}amino) nicotinonitrile] was tested, and the IC50 [1] was ≥ 10000 nM and the IC50 [2] was 200 nM.
Molecule `Fc1ccccc1Cn1nc(-c2nc(Nc3ccncc3)c(N3CCOCC3)c(Nc3ccncc3)n2)c2c1CCC2` [Example 2-1-8, 2-[1-(2-fluoro-benzyl)-1,4,5,6-tetrahydrocyclopenta[c]pyrazol-3-yl]-5-(morpholin-4-yl)-N,N′-di(pyridin-4-yl)pyrimidin-4,6-diamine] has an IC50 [2] of 3000 nM.
`COCC(=O)Nc1nc(-c2nn(Cc3ccccc3F)c3c2CCC3)nc(Nc2ccncc2)c1OC` [Example 2-1-10, N-{2-[1-(2-fluorobenzyl)-1,4,5,6-tetrahydrocyclopenta[c]pyrazol-3-yl]-5-methoxy-6-(pyridin-4-ylamino)pyrimidin-4-yl}-2-methoxyacetamide] was tested, and the IC50 [1] was ≥ 10000 nM and the IC50 [2] was 300 nM.
In the case of `COc1c(NC(C)=O)nc(-c2nn(Cc3ccccc3F)c3c2CCC3)nc1Nc1ccncc1` [Example 2-1-11, N-{2-[1-(2-fluoro-benzyl)-1,4,5,6-tetrahydrocyclopenta [c]pyrazol-3-yl]-5-methoxy-6-(pyridin-4-ylamino)pyrimidin-4-yl}acetamide], the IC50 [2] is reported as 120 nM.
`NC(=O)c1cnccc1Nc1nc(-c2nn(Cc3ccccc3F)c3c2CCC3)ncc1O` [Example 2-1-12, 4-({2-[1-(2-fluoro-benzyl)-1,4,5,6-tetrahydrocyclopenta [c]pyrazol-3-yl]-5-hydroxy-pyrimidin-4-yl}amino) nicotinamide] was tested, and the IC50 [1] was ≥ 10000 nM and the IC50 [2] was 200 nM.
In the case of `Oc1cnc(-c2nn(Cc3ccccc3F)c3c2CCC3)nc1Nc1ccncc1` [Example 2-1-13, 2-[1-(2-fluoro-benzyl)-1,4,5,6-tetrahydrocyclopenta [c]pyrazol-3-yl]-4-(pyridin-4-ylamino) pyrimidin-5-ol], the IC50 [1] is reported as ≥ 10000 nM and the IC50 [2] is reported as 300 nM.
With `CCOc1cc(F)c(Cn2nc(-c3ncc(O)c(Nc4ccncc4)n3)c3c2CCC3)c(F)c1` [Example 2-2-1, 2-[1-(4-ethoxy-2,6-difluorobenzyl)-1,4,5,6-tetrahydrocyclopenta-[c]pyrazol-3-yl]-4-(pyridin-4-ylamino)pyrimidin-5-ol] the IC50 [1] was ≥ 10000 nM and the IC50 [2] was 20 nM.
`N#Cc1cnccc1Nc1nc(-c2nn(Cc3ccccc3F)c3c2CCC3)ncc1O` [Example 2-2-2, 4-({2-[1-(2-fluoro-benzyl)-1,4,5,6-tetrahydrocyclopenta [c]pyrazol-3-yl]-5-hydroxy-pyrimidin-4-yl}amino) nicotinonitrile] gave an IC50 [1] of 6000 nM and an IC50 [2] of 70 nM.
Work on `CCOc1cc(F)c(Cn2nc(-c3ncc(OCCO[Si](C)(C)C(C)(C)C)c(Nc4ccncc4)n3)c3c2CCC3)c(F)c1` [Example 2-3-6, 5-(2-{[tert-butyl (dimethyl)silyl]oxy}ethoxy)-2-[1-(4-ethoxy-2,6-difluoro-benzyl)-1,4,5,6-tetrahydrocyclopenta [c]pyrazol-3-yl]-N-(pyridin-4-yl)pyrimidin-4-amine] yielded an IC50 [2] of 100 nM.
Work on `CSCCOc1cnc(-c2nn(Cc3ccccc3F)c3c2CCC3)nc1Nc1ccncc1C(N)=O` [Example 2-3-8, 4-({2-[1-(2-fluoro-benzyl)-1,4,5,6-tetrahydrocyclopenta [c]pyrazol-3-yl]-5-[2-(methyl-sulfanyl)ethoxy]pyrimidin-4-yl}amino) nicotinamide] yielded an IC50 [2] of 20 nM.
In the case of `CCOC(=O)c1cnccc1Nc1nc(-c2nn(Cc3ccccc3F)c3c2CCC3)ncc1Oc1ccncc1C(=O)OCC` [Example 2-9-1, ethyl 4-[(4-{[3-(ethoxycarbonyl)pyridin-4-yl]amino}-2-[1-(2-fluorobenzyl)-1,4,5,6-tetrahydrocyclopenta[c]pyrazol-3-yl]pyrimidin-5-yl)oxy]nicotinate], the IC50 [2] is reported as 500 nM.
Work on `COCC(=O)N(c1ccncc1)c1nc(-c2nn(Cc3ccccc3F)c3c2CCC3)nc(N)c1OC` [Example 2-12-1, N-{6-amino-2-[1-(2-fluorobenzyl)-1,4,5,6-tetrahydrocyclopenta[c]-pyrazol-3-yl]-5-methoxypyrimidin-4-yl}-2-methoxy-N-(pyridin-4-yl)acetamide] yielded an IC50 [2] of 6000 nM.
